Assay: IC50 test to confirm desired/undesired isomer (assay not specified)
Conditions: qualitative outcome only, no number given

SMILES	tested for IC50 to confirm as desired / undesired compound	tested for IC50 to confirm as desired / undesired compound (hydrochloride)
CN1CCNc2nc(CCOc3ccc(C4CC4CC(=O)O)cc3)ccc21 (single isomer, unassigned; (+)) [Example 81, ((+)-2-{4-[2-(1-methyl-1,2,3,4-tetrahydropyrido[2,3-b]pyrazin-^6-yl)ethoxy]phenyl}cyclopropyl)acetic acid]	desired compound	
CN1CCNc2nc(CCOc3ccc(C4CC4CC(=O)O)cc3)ccc21 (single isomer, unassigned; (-)) [Example 82, ((−)-2-{4-[2-(1-methyl-1,2,3,4-tetrahydropyrido[2,3-b]pyrazin-6-yl)ethoxy]phenyl}cyclopropyl)acetic acid]	undesired compound	
Cl.O=C(O)CC1C(c2ccc(OCCc3ccc4c(n3)NCCC4)cc2)C1(Cl)Cl (single isomer, unassigned) [Example 85, second peak, (2,2-Dichloro-3-{4-[2-(5,6,7,8-tetrahydro-1,8-naphthyridin-2-yl)ethoxy]phenyl}cyclopropyl)acetic acid hydrochloride]		desired compound
Cl.O=C(O)CC1C(c2ccc(OCCc3ccc4c(n3)NCCC4)cc2)C1(Cl)Cl (single isomer, unassigned) [Example 85, first peak, (2,2-Dichloro-3-{4-[2-(5,6,7,8-tetrahydro-1,8-naphthyridin-2-yl)ethoxy]phenyl}cyclopropyl)acetic acid hydrochloride]		undesired isomer
